The text below walks through data of PubChem BioAssay (NCI).

Test systems include PC-3 prostate; MDA-MB-231 breast; LOX IMVI melanoma; NCI-H522 lung; HCT-15 colon; MOLT-4 leukemia; HT29 colon; T-47D breast; SW-620 colon; HS 578T breast.
Test in all cases: NCI anticancer screen, dose series, 48 h

The structures appear in SMILES notation.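 1) Cells in 96-well plates. 2) Compound, 48 h, 5 concentrations. 3) Linear interpolation between surrounding doses. 4) Unreached endpoint = highest concentration. GI50 = concentration required for 50% inhibition of growth. Definition used: TGI = concentration required for complete inhibition of growth.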

As for `CCc1ccc(C(=Nc2ccc(N(C)C(=O)CN3CCN(C)CC3)cc2)c2c(O)[nH]c3ccc(C(=O)OC)cc23)cc1`, the GI50 in the experiment with PC-3 prostate was 0.292 µM; in the experiment on MDA-MB-231 breast it was 0.585 µM; in the experiment on LOX IMVI melanoma it was 0.337 µM; with NCI-H522 lung, 586 nM; in the experiment with HCT-15 colon it was 277 nM; in the experiment on MOLT-4 leukemia, 176 nM. For the same compound, the GI50 in the experiment on HT29 colon is 0.247 µM; in the experiment with T-47D breast, 870 nM; in the experiment on SW-620 colon, 259 nM; in the experiment on HS 578T breast it was 169 nM. Further, the TGI in the experiment with PC-3 prostate stood at 1.61 µM; in the experiment on MDA-MB-231 breast, 2.09 µM; in the experiment with LOX IMVI melanoma it was 1.63 µM; in the experiment on NCI-H522 lung it was 2.38 µM; with HCT-15 colon, 1.25 µM; with MOLT-4 leukemia it was 0.908 µM. In addition, the TGI in the experiment on HT29 colon is 3.17 µM; in the experiment with T-47D breast, 2.68 µM; in the experiment on SW-620 colon, 1.29 µM; in the experiment on HS 578T breast it was 1.1 µM.
In the case of `CC(=[N-])N1CCC[C@@H](Nc2c3ccccc3nc3ccccc23)C1.[Cl][Pt].[NH-]CCC[NH-]`, the GI50 is 3.57 µM with PC-3 prostate; 2.1 µM in the experiment on MDA-MB-231 breast; 2.25 µM in the experiment with LOX IMVI melanoma; 25.8 nM in the experiment on NCI-H522 lung; 2370 nM with HCT-15 colon; 359 nM in the experiment with MOLT-4 leukemia. In addition, the GI50 in the experiment on HT29 colon is 0.44 µM; in the experiment on T-47D breast, 36.8 nM; in the experiment on SW-620 colon, 268 nM; with HS 578T breast, 3330 nM. Besides, the TGI in the experiment on PC-3 prostate is 44.9 µM; with MDA-MB-231 breast, 89.1 µM; in the experiment with LOX IMVI melanoma, greater than 21.9 µM; with NCI-H522 lung it was 0.165 µM; with HCT-15 colon, greater than 100 µM; in the experiment on MOLT-4 leukemia, greater than 100 µM. Besides, the TGI in the experiment with HT29 colon is greater than 100 µM; in the experiment on T-47D breast, greater than 100 µM; with SW-620 colon, greater than 100 µM; with HS 578T breast it was greater than 31.4 µM.
As for `CC(=O)O[C@H]1[C@@H]2OC(=O)C(CSc3ccccc3)[C@@H]2C[C@H]2O[C@]2(C)CC/C=C(\C)CCC[C@@H]1C` (stereo not given in full), the GI50 with PC-3 prostate was 2.53 µM; with MDA-MB-231 breast, 4.25 µM; in the experiment on LOX IMVI melanoma, 3.22 µM; in the experiment on NCI-H522 lung, 1740 nM; in the experiment on HCT-15 colon it was 1950 nM; in the experiment with MOLT-4 leukemia, 2520 nM. The GI50 is 3.51 µM with HT29 colon, 2430 nM with T-47D breast, 2220 nM in the experiment on SW-620 colon and 2790 nM with HS 578T breast. Further, the TGI in the experiment on PC-3 prostate is 11.1 µM; with MDA-MB-231 breast, 19.5 µM; in the experiment with LOX IMVI melanoma it was 13.9 µM; with NCI-H522 lung it was 3.68 µM; in the experiment on HCT-15 colon, 6.52 µM; in the experiment with MOLT-4 leukemia it was greater than 23.8 µM. The TGI in the experiment on HT29 colon is 14.9 µM; with T-47D breast, 12.6 µM; in the experiment with SW-620 colon, 4.92 µM; in the experiment with HS 578T breast it was 10.2 µM.
In the case of `CC1(N)CCN(c2cnc(-c3cccc(Cl)c3Cl)c(N)n2)CC1`, the GI50 was 26.7 µM in the experiment on PC-3 prostate; 18.2 µM with MDA-MB-231 breast; 15.3 µM in the experiment with LOX IMVI melanoma; 14900 nM in the experiment on NCI-H522 lung; 28300 nM with HCT-15 colon; 22700 nM with MOLT-4 leukemia. For the same compound, the GI50 was 26.7 µM in the experiment on HT29 colon, 17300 nM in the experiment with T-47D breast, 19300 nM in the experiment on SW-620 colon and 13300 nM in the experiment on HS 578T breast. Also, the TGI in the experiment on PC-3 prostate is greater than 100 µM; in the experiment on MDA-MB-231 breast it was 48.7 µM; in the experiment on LOX IMVI melanoma it was 30 µM; with NCI-H522 lung, 65.8 µM; in the experiment on HCT-15 colon, greater than 100 µM; with MOLT-4 leukemia, 99.3 µM. In addition, the TGI in the experiment on HT29 colon was greater than 100 µM; in the experiment with T-47D breast it was 68.4 µM; in the experiment on SW-620 colon, greater than 100 µM; in the experiment with HS 578T breast it was 64 µM.
As to `CCCCCCCCCNC(=O)/C=C/c1ccc(O)c(O)c1`, the GI50 with PC-3 prostate is 3.61 µM; in the experiment on MDA-MB-231 breast, 13.2 µM; in the experiment with LOX IMVI melanoma, 11 µM; with NCI-H522 lung it was 833 nM; in the experiment with HCT-15 colon it was 5250 nM; with MOLT-4 leukemia, 474 nM. Moreover, the GI50 with HT29 colon was 17.9 µM; with T-47D breast, 15000 nM; in the experiment with SW-620 colon it was 3060 nM; with HS 578T breast it was 451 nM. The TGI in the experiment with PC-3 prostate is 36.2 µM; in the experiment on MDA-MB-231 breast it was 34.7 µM; in the experiment on LOX IMVI melanoma, 29 µM; in the experiment on NCI-H522 lung it was 9.91 µM; in the experiment with HCT-15 colon, 19.9 µM; in the experiment on MOLT-4 leukemia it was 17.4 µM. Moreover, the TGI in the experiment on HT29 colon is greater than 100 µM; in the experiment with T-47D breast it was 59.9 µM; with SW-620 colon, 30.4 µM; with HS 578T breast it was 12.9 µM.
With `O=[N+]([O-])c1cc(C(F)(F)F)ccc1Sc1ccc(C(F)(F)F)cc1[N+](=O)[O-]`, the GI50 in the experiment with PC-3 prostate is 61.2 µM; with MDA-MB-231 breast, 5.1 µM; in the experiment on LOX IMVI melanoma it was 3.37 µM; in the experiment on NCI-H522 lung, 7140 nM; in the experiment with HCT-15 colon it was 6840 nM; in the experiment with MOLT-4 leukemia, 3920 nM. In addition, the GI50 was 3.28 µM with HT29 colon, 29200 nM in the experiment with T-47D breast, 3310 nM with SW-620 colon and 18600 nM in the experiment with HS 578T breast. Besides, the TGI is greater than 100 µM in the experiment with PC-3 prostate; greater than 100 µM in the experiment with MDA-MB-231 breast; greater than 100 µM in the experiment with LOX IMVI melanoma; 82.4 µM in the experiment on NCI-H522 lung; greater than 100 µM in the experiment on HCT-15 colon; greater than 100 µM in the experiment on MOLT-4 leukemia. The TGI with HT29 colon is 9.79 µM; in the experiment on T-47D breast it was greater than 100 µM; in the experiment on SW-620 colon, greater than 100 µM; in the experiment on HS 578T breast, greater than 100 µM.
For `CC(CN(C)C)Oc1ccccc1NC1=C(Cl)C(=O)C(Nc2ccccc2OC(C)CN(C)C)=C(Cl)C1=O` (stereo not given), the GI50 is 1.33 µM with PC-3 prostate; 0.509 µM in the experiment on MDA-MB-231 breast; 0.183 µM in the experiment on LOX IMVI melanoma; 157 nM in the experiment on NCI-H522 lung; 176 nM with HCT-15 colon; 195 nM with MOLT-4 leukemia. Besides, the GI50 is 0.179 µM in the experiment with HT29 colon, 175 nM in the experiment on T-47D breast, 175 nM with SW-620 colon and 1800 nM in the experiment on HS 578T breast. Besides, the TGI in the experiment on PC-3 prostate is 2.86 µM; with MDA-MB-231 breast, 1.2 µM; with LOX IMVI melanoma it was 0.377 µM; with NCI-H522 lung, 0.337 µM; in the experiment on HCT-15 colon it was 0.375 µM; with MOLT-4 leukemia, 0.51 µM. The TGI in the experiment with HT29 colon was found to be 0.423 µM; in the experiment with T-47D breast, 0.455 µM; in the experiment on SW-620 colon it was 0.357 µM; in the experiment with HS 578T breast, 4.53 µM.
